Results on eleven compounds are retold here after ChEMBL document CHEMBL1201862, “PubChem BioAssay data set” (2004).

Among the test systems are SNB-75; NCI-H226; A549; Malme-3M; LOX IMVI; UO-31; DU-145; UACC-62; NCI-H23; A498; HCT-15; MCF7; BT-549; SNB-19; RXF 393; 786-0; HCC 2998; SF-295; U-251; NCI-H460.
Experiment in all cases: growth of human tumour cells (NCI), 48 h

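Dose response: 5 concentrations. Exposure: 48 h. Format: 96-well plates. Endpoint: linear interpolation; highest concentration if not reached. GI50 marks 50% less growth.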 The source made the active and inactive calls. Rule as the data show it: active = GI50 up to about 1.1 µM and inactive = higher.

Turning to `CCOc1cc(C2CC(c3ccc(NS(=O)(=O)c4cc([N+](=O)[O-])ccc4C)cc3)=NN2)ccc1O` (stereo not given), the GI50 in the assay with SNB-75 is 29.8 µM (inactive); with NCI-H226, 43 µM (inactive); in the assay on A549 it was 29 µM (inactive); with Malme-3M, 25 µM (inactive); in the assay with LOX IMVI, 22.5 µM (inactive); in the assay on UO-31, 27.8 µM (inactive). The GI50 is 36.6 µM (inactive) with DU-145; 14 µM (inactive) in the assay with UACC-62; 28 µM (inactive) in the assay on NCI-H23; 22.3 µM (inactive) in the assay on A498; 20.5 µM in the assay with HCT-15; 21.5 µM (inactive) in the assay on MCF7. For the same compound, the GI50 was 21.1 µM (inactive) with BT-549, 30.3 µM (inactive) in the assay with SNB-19, 18.6 µM (inactive) in the assay with RXF 393 and 20.1 µM (inactive) with 786-0.
For `CC(=O)OCC1OC(n2c(-c3ccccc3)c(/N=N/c3ccc(C)cc3)c(C)c(C#N)c2=S)C(OC(C)=O)C(OC(C)=O)C1OC(C)=O` (stereo not given), the GI50 is 9.62 µM (inactive) in the assay with A549; 22.7 µM (inactive) in the assay with HCC 2998; > 10 µM (inactive) in the assay on Malme-3M; 23.6 µM (inactive) in the assay with SF-295; 6 µM (inactive) with LOX IMVI; > 10 µM (inactive) with UO-31. Besides, the GI50 is 18.1 µM (inactive) in the assay on DU-145; 13.4 µM (inactive) with NCI-H23; 2.78 µM (inactive) in the assay on A498; 21.1 µM in the assay with HCT-15; 6.47 µM (inactive) in the assay with MCF7; 6.44 µM (inactive) with BT-549. Besides, the GI50 in the assay on SNB-19 is 15.3 µM (inactive); in the assay with U-251 it was 14.9 µM (inactive); in the assay on RXF 393, 16.2 µM (inactive); with 786-0 it was 3.55 µM (inactive); in the assay with NCI-H460, 10.8 µM (inactive).
As to `Cc1sc2ccccc2[n+]1CCC(=O)O`, the GI50 in the assay on SNB-75, with NCI-H226, in the assay with A549, in the assay with Malme-3M, in the assay with SF-295 and in the assay with LOX IMVI was > 100 µM (inactive) throughout. Moreover, the GI50 in the assay on DU-145 is > 100 µM (inactive); in the assay with UACC-62 it was > 100 µM (inactive); with NCI-H23, > 100 µM (inactive); in the assay with A498 it was > 100 µM (inactive); in the assay with HCT-15, greater than 100 µM; with MCF7, > 100 µM (inactive). Moreover, the GI50 with BT-549, in the assay on SNB-19, in the assay on U-251, in the assay on RXF 393, with 786-0 and in the assay on NCI-H460 was > 100 µM (inactive) throughout.
On to `O=C1C2CCN(CC2)C1(CO)CO`, for which the GI50 is 57.7 µM (inactive) in the assay on SNB-75; 28.1 µM (inactive) in the assay on NCI-H226; 78.3 µM (inactive) in the assay with A549; 18.2 µM (inactive) with Malme-3M; > 100 µM (inactive) in the assay on SF-295; 16 µM (inactive) with LOX IMVI. The GI50 was 16.1 µM (inactive) in the assay on UO-31; 17.3 µM (inactive) in the assay on DU-145; 25.1 µM (inactive) in the assay with UACC-62; 25.2 µM (inactive) in the assay on NCI-H23; > 51.1 µM (inactive) with A498; 16.1 µM in the assay with HCT-15. The GI50 with MCF7 is 24.7 µM (inactive); with BT-549, 19.8 µM (inactive); in the assay on SNB-19, > 100 µM (inactive); in the assay on U-251, 41.1 µM (inactive); in the assay on RXF 393, 21.1 µM (inactive); in the assay on 786-0, 28.2 µM (inactive). Besides, the GI50 in the assay on NCI-H460 was 66.7 µM (inactive).
As for `Cc1cn([C@H]2[C@@H](CO)C[C@H]2O)c(=O)[nH]c1=O`, the GI50 in the assay with SNB-75, with NCI-H226, in the assay with A549, in the assay with HCC 2998, in the assay with Malme-3M and in the assay on SF-295 was > 100 µM (inactive) throughout. The GI50 is > 100 µM (inactive) in the assay on LOX IMVI; > 100 µM (inactive) with UO-31; > 100 µM (inactive) in the assay on DU-145; > 100 µM (inactive) in the assay on NCI-H23; > 100 µM (inactive) in the assay with A498; greater than 100 µM in the assay with HCT-15. The GI50 with MCF7, in the assay on BT-549, with U-251, with RXF 393, in the assay on 786-0 and in the assay on NCI-H460 was > 100 µM (inactive) each time.
In the case of `O=C1/C(=C\c2ccc(Br)cc2)CCCc2ccccc21`, the GI50 with SNB-75 was 18.8 µM (inactive); with NCI-H226, 14.4 µM (inactive); with A549 it was 31.6 µM (inactive); in the assay with HCC 2998, 14.7 µM (inactive); in the assay with SF-295 it was 22 µM (inactive); in the assay on LOX IMVI it was 16.3 µM (inactive). Moreover, the GI50 in the assay on UO-31 was 14.6 µM (inactive); in the assay on DU-145, 15.5 µM (inactive); in the assay on UACC-62 it was 13.3 µM (inactive); in the assay with NCI-H23, 17.1 µM (inactive); in the assay with A498, 23.8 µM (inactive); in the assay with HCT-15, 12.4 µM. Moreover, the GI50 with MCF7 is 19.5 µM (inactive); with BT-549 it was 24 µM (inactive); with SNB-19, 16.6 µM (inactive); in the assay with U-251 it was 15 µM (inactive); in the assay with RXF 393 it was 21 µM (inactive); with 786-0, 14.6 µM (inactive). Further, in the assay on NCI-H460, the GI50 was 17 µM (inactive).
For the compound `CCc1[nH]c(=O)nc(N)c1-c1ccc(N2CCCCC2)c([N+](=O)[O-])c1`, the GI50 in the assay with SNB-75, with NCI-H226, in the assay on A549, with HCC 2998, in the assay with SF-295 and with LOX IMVI was > 100 µM (inactive) each time. The GI50 in the assay with UO-31 is > 100 µM (inactive); in the assay on DU-145, > 100 µM (inactive); with UACC-62 it was > 100 µM (inactive); in the assay on NCI-H23, > 100 µM (inactive); with A498, > 100 µM (inactive); with HCT-15, greater than 100 µM. For the same compound, the GI50 in the assay on MCF7, with BT-549, with SNB-19, in the assay with U-251, in the assay on RXF 393 and with 786-0 was > 100 µM (inactive) in each case. Also, the GI50 with NCI-H460 is > 100 µM (inactive).
`COc1nc2c(c(=O)[nH]1)N=C(c1ccc(Cl)cc1)CC(c1ccccc1)N2` (stereo not given): the GI50 was 20.8 µM (inactive) with SNB-75; 29.4 µM (inactive) in the assay with NCI-H226; 33.4 µM (inactive) in the assay with A549; 34 µM (inactive) in the assay with HCC 2998; 23.1 µM (inactive) with SF-295; 22.5 µM (inactive) with LOX IMVI. Moreover, the GI50 in the assay with UO-31 is 29.6 µM (inactive); with DU-145, 40.6 µM (inactive); with UACC-62, 20.2 µM (inactive); in the assay with NCI-H23, 49.2 µM (inactive); in the assay with A498, 33.3 µM (inactive); with HCT-15, 24.2 µM. Further, the GI50 is 39 µM (inactive) in the assay on MCF7; 31.2 µM (inactive) in the assay with BT-549; 35.6 µM (inactive) in the assay with SNB-19; 35.6 µM (inactive) in the assay with U-251; 23.9 µM (inactive) in the assay on RXF 393; 37.6 µM (inactive) with 786-0. For the same compound, in the assay on NCI-H460, the GI50 was 27.1 µM (inactive).
With `CCCCSC1=N/C(=C\c2ccc(N(C)C)cc2)C(NN)=N1`, the GI50 in the assay on SNB-75, in the assay on A549, in the assay on HCC 2998, in the assay with Malme-3M, in the assay on SF-295 and in the assay on LOX IMVI was > 100 µM (inactive) each time. The GI50 in the assay on DU-145 was > 100 µM (inactive); with UACC-62, > 100 µM (inactive); in the assay with NCI-H23, > 100 µM (inactive); in the assay on A498 it was > 100 µM (inactive); in the assay with HCT-15 it was greater than 100 µM; with MCF7, > 100 µM (inactive). The GI50 in the assay with BT-549, with SNB-19, in the assay with U-251, in the assay on RXF 393, in the assay with 786-0 and with NCI-H460 was > 100 µM (inactive) in each case.
Take `O=C(OCc1ccccc1)N(CCCCN(CCCNC(=O)C(F)(F)F)C(=O)OCc1ccccc1)CCCNC(=O)C(F)(F)F`: the GI50 with SNB-75 was > 100 µM (inactive); in the assay with NCI-H226, > 100 µM (inactive); in the assay with A549, > 66.8 µM (inactive); in the assay on HCC 2998 it was > 100 µM (inactive); with SF-295, > 100 µM (inactive); in the assay on LOX IMVI, > 100 µM (inactive). The GI50 was 3.56 µM (inactive) in the assay on UO-31; > 100 µM (inactive) with DU-145; > 100 µM (inactive) in the assay on UACC-62; > 100 µM (inactive) in the assay on NCI-H23; > 100 µM (inactive) with A498; greater than 100 µM in the assay on HCT-15. Further, the GI50 is > 100 µM (inactive) in the assay on MCF7; > 100 µM (inactive) in the assay with BT-549; 4.2 µM (inactive) with SNB-19; > 100 µM (inactive) in the assay with U-251; > 100 µM (inactive) with RXF 393; > 100 µM (inactive) in the assay with 786-0. Further, the GI50 in the assay on NCI-H460 is > 83.6 µM (inactive).
For the compound `C[C@H](NC(=O)C(Cc1ccccc1)(Cc1ccc(O)cn1)NC(=O)c1ccccc1)c1ccccc1` (stereo not given in full), the GI50 with NCI-H226 was 19.7 µM (inactive); with A549, 14.3 µM (inactive); with HCC 2998 it was 16.5 µM (inactive); in the assay with Malme-3M, 17.5 µM (inactive); with SF-295 it was 14.6 µM (inactive); in the assay with LOX IMVI, 14.8 µM (inactive). The GI50 is 14.8 µM (inactive) with UO-31; 18.6 µM (inactive) in the assay with DU-145; 13.2 µM (inactive) with UACC-62; 22 µM (inactive) with NCI-H23; 18.1 µM (inactive) with A498; 18 µM in the assay on HCT-15. For the same compound, the GI50 was 24.2 µM (inactive) with MCF7; 18.1 µM (inactive) with BT-549; 18.8 µM (inactive) in the assay on SNB-19; 15.3 µM (inactive) in the assay on U-251; 14.3 µM (inactive) with RXF 393; 16.7 µM (inactive) with 786-0.
